Measured values from publication PMC10233829 (ACS Omega, 2023).
In brackets after ≈: the same amount, converted by molar mass. Where two headings read alike, the source gives them in different places.

Experiments:
[1] = target: T1, S. aureus topoisomerase IV (Staphylococcus aureus, UniProt P0C1S7+P0C1U9); test: Topoisomerase IV decatenation assay; format: biochemical; details: decatenation of kinetoplast DNA
T1 construct: purchased Inspiralis, Norwich, UK

S. aureus NCTC 4163 = test: MIC, twofold microdilution, standard strain; format: cell-based; details: Staphylococcus aureus, NCTC4163, 18 h
S. aureus ATCC 25923 = test: MIC, twofold microdilution, standard strain; format: cell-based; details: Staphylococcus aureus, ATCC25923, 18 h
S. aureus ATCC 6538 = test: MIC, twofold microdilution, standard strain; format: cell-based, Staphylococcus aureus; details: Staphylococcus aureus, ATCC6538; standard strain, 18 h
S. aureus ATCC 29213 = test: MIC, twofold microdilution, standard strain; format: cell-based; details: Staphylococcus aureus, ATCC29213, 18 h
[2] = system: S. epidermidis ATCC 12228; test: MIC, twofold microdilution, standard strain; format: cell-based; details: Staphylococcus epidermidis, ATCC12228, 18 h
[3] = system: S. epidermidis ATCC 35984; test: MIC, twofold microdilution, standard strain; format: cell-based; details: Staphylococcus epidermidis, ATCC35984, 18 h
P. aeruginosa ATCC 15442 = test: MIC, twofold microdilution, standard strain; format: cell-based, Pseudomonas aeruginosa; details: Pseudomonas aeruginosa, ATCC15442; standard strain, 18 h
E. coli ATCC 25922 = test: MIC, twofold microdilution, standard strain; format: cell-based, Escherichia coli; details: Escherichia coli, ATCC25922; standard strain, 18 h
S. aureus 180 = test: MIC, twofold microdilution, clinical strain; format: cell-based; details: Staphylococcus aureus, 18 h
S. aureus 5595 = test: MIC, twofold microdilution, clinical strain; format: cell-based; details: Staphylococcus aureus, 18 h
S. aureus T5595 = test: MIC, twofold microdilution, clinical strain; format: cell-based, Staphylococcus aureus; details: for MIC: Staphylococcus aureus, T5595, 18 h
S. aureus T5591 = test: MIC, twofold microdilution, clinical strain; format: cell-based, Staphylococcus aureus; details: for MIC: Staphylococcus aureus, T5591, 18 h
S. epidermidis 4341 = test: MIC, twofold microdilution, clinical strain; format: cell-based; details: Staphylococcus epidermidis, 18 h
S. epidermidis 5253 = test: MIC, twofold microdilution, clinical strain; format: cell-based, Staphylococcus epidermidis; details: for MIC S. epidermidis 5253: 18 h; for MIC: Staphylococcus epidermidis, 5253, 18 h
S. epidermidis KR4243/1 = test: MIC, twofold microdilution, clinical strain; format: cell-based; details: Staphylococcus epidermidis, 18 h
S. pasteuri KR 4358 = test: MIC, twofold microdilution, clinical strain; format: cell-based; details: Staphylococcus pasteuri, KR4358, 18 h
P. aeruginosa 37 = test: MIC, twofold microdilution, clinical strain; format: cell-based; details: Pseudomonas aeruginosa, 18 h
P. aeruginosa 659 = test: MIC, twofold microdilution, clinical strain; format: cell-based; details: Pseudomonas aeruginosa, 18 h
E. coli 951 = test: MIC, twofold microdilution, clinical strain; format: cell-based; details: Escherichia coli, 18 h
E. coli 520 = test: MIC, twofold microdilution, clinical strain; format: cell-based; details: Escherichia coli, 18 h
E. coli 600 = test: MIC, twofold microdilution, clinical strain; format: cell-based, Escherichia coli; details: Escherichia coli, 600, 18 h
E. cloacae 8 = test: MIC, twofold microdilution, clinical strain; format: cell-based, Escherichia cloacae; details: Enterobacter cloacae, 8; clinical strain, 18 h
K. pneumoniae 28 = test: MIC, twofold microdilution, clinical strain; format: cell-based; details: Klebsiella pneumoniae, 18 h
K. pneumoniae 510 = test: MIC, twofold microdilution, clinical strain; format: cell-based, Klebsiella pneumoniae; details: Klebsiella pneumoniae, 510; clinical strain, 18 h
M. tuberculosis H37Rv = test: Tuberculostatic activity, Microplate Alamar Blue Assay (MIC); format: cell-based, Mycobacterium tuberculosis; details: Mycobacterium tuberculosis, H37RV; MABA; read-out: MIC M. tuberculosis H37Rv
[4] = system: M. tuberculosis Spec. 192; test: as above; format: cell-based; details: Mycobacterium tuberculosis, MABA, read-out: MIC M. tuberculosis Spec. 192 (sensitive to tuberculostatics)
M. tuberculosis Spec 210 = test: microbe, parasite or virus in culture; format: cell-based, Mycobacterium tuberculosis; details: M. tuberculosis Spec. 210
PC3 cells = test: MTT assay, cytotoxic activity; format: cell-based, human; details: Homo sapiens, PC-3, 72 h, MTT, 72 h
Procedure, shortened: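 PC3 cells were grown at 37 °C/5% CO2 and exposed to test compounds. Viability came from MTT reduction, as test absorbance over untreated-control absorbance × 100%.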

[5] = MTT assay, cytotoxic activity; format: cell-based; details: human, HaCaT cells (immortal keratinocytes); MTT, 72 h, normal cell line; read-out: IC50 HaCaT
Procedure, shortened: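 MTT assay on cells grown at 37 °C/5% CO2. Viability is expressed as relative MTT reduction: test absorbance divided by untreated-control absorbance, ×100%.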

[6] = system: Staphylococci (standard strains); test: MIC, standard Gram-positive strains as a panel; format: cell-based, S. aureus, S. epidermidis; details: for MIC: read-out: MIC toward standard Staphylococci (range over strains)
[7] = system: clinical bacterial strains; test: MIC, clinical isolates as groups of strains; format: cell-based; details: for MIC: clinical strains, read-out: MIC against selected E. coli and E. cloacae strains
S. aureus DNA gyrase = S. aureus DNA gyrase (Staphylococcus aureus, UniProt P0A0K8+P20831); test: biochemical; details: supercoiling of relaxed pBR322
Experimental: The enzymatic assay was carried using commercial topoisomerases type II as previously described by Alt et al.[55] with some modifications.
Briefly, 1 U of the enzyme (gyrase or topo IV, Inspiralis. Norwich, UK) isolated from S. aureus converts […] of relaxed pBR322 DNA to the supercoiled form (gyrase) or decatenates 200 ng of kinetoplast DNA (topo IV). […] The reactions were terminated by adding an equal volume of STEB buffer (40% sucrose, 100 mM Tris–HCl pH 8, 10 mM EDTA, and 0.5 mg/mL bromophenol blue), followed by extraction with 1 volume of chloroform/isoamyl alcohol (24:1). The samples were vortexed and centrifuged, and 20 μL of the aqueous phase of each sample was loaded onto a 1% agarose gel and left for 30 min prior to electrophoresis to allow diffusion of salt. […] Gels were stained with ethidium bromide and visualized under UV light in a transilluminator (ChemiDoc MP, Bio Rad).

[8] = system: P. aeruginosa ATCC 15442 and E. coli ATCC 25922; test: MIC, standard Gram-negative rods as a panel; format: cell-based; details: P. aeruginosa ATCC 15442, E. coli ATCC 25922; read-out: MIC against standard Gram-negative rods (range over strains)
[9] = standard Gram-positive strains of Table 1
[10] = read-out: IC50 S. aureus topoisomerase IV (converted)

Compound | MIC (S. aureus NCTC 4163) [µg/mL] | MIC (S. aureus ATCC 25923) [µg/mL] | MIC (S. aureus ATCC 6538) [µg/mL] | MIC (S. aureus ATCC 29213) [µg/mL] | MIC [2] [µg/mL] | MIC [3] [µg/mL] | MIC (P. aeruginosa ATCC 15442) [µg/mL] | MIC (E. coli ATCC 25922) [µg/mL] | MIC (S. aureus 180) [µg/mL] | MIC (S. aureus 5595) [µg/mL] | MIC (S. aureus T5595) [µg/mL] | MIC (S. aureus T5591) [µg/mL] | MIC (S. epidermidis 4341) [µg/mL] | MIC (S. epidermidis 5253) [µg/mL] | MIC (S. epidermidis KR4243/1) [µg/mL] | MIC (S. pasteuri KR 4358) [µg/mL] | MIC (P. aeruginosa 37) [µg/mL] | MIC (P. aeruginosa 659) [µg/mL] | MIC (E. coli 951) [µg/mL] | MIC (E. coli 520) [µg/mL] | further results
COc1c(N2C[C@@H]3CCCN[C@@H]3C2)c(F)cc2c(=O)c(C(=O)O)cn(C3CC3)c12 [MXF, moxifloxacin, reference compound] | – | – | – | – | – | – | – | – | – | – | – | – | – | – | – | – | – | – | – | – | IC50 ([1]; IC50 S. aureus topoisomerase IV): 3.74 µM
O=C(O)c1cn(C2CC2)c2cc(N3CCN(C(=O)CCCl)CC3)c(F)cc2c1=O [Compound 4, 7-[4-(3-Chloropropionyl)-piperazin-1-yl]-1-cyclopropyl-6-fluoro-4-oxo-1,4-dihydro-quinoline-3-carboxylic Acid] | 0.2 (≈ 0.474 µM) | 0.4 (≈ 0.948 µM) | 0.2 (≈ 0.474 µM) | 0.2 (≈ 0.474 µM) | 0.2 (≈ 0.474 µM) | 0.2 (≈ 0.474 µM) | 12.8 (≈ 30.3 µM) | 3.2 (≈ 7.59 µM) | 0.2 (≈ 0.474 µM) | 0.2 (≈ 0.474 µM) | 0.4 (≈ 0.948 µM) | 0.4 (≈ 0.948 µM) | 6.4 (≈ 15.2 µM) | 12.8 to 25.6 (≈ 30.3 to 60.7 µM) | 0.2 (≈ 0.474 µM) | 0.2 (≈ 0.474 µM) | > 25.6 | > 25.6 | 25.6 (≈ 60.7 µM) | 0.8 (≈ 1.9 µM) | MIC S. epidermidis 5253 (S. epidermidis 5253): 25.6 µg/mL (≈ 60.7 µM); MIC (E. coli 600): 0.8 µg/mL (≈ 1.9 µM); MIC (E. cloacae 8): 0.8 µg/mL (≈ 1.9 µM); MIC (K. pneumoniae 28): > 25.6 µg/mL; MIC (K. pneumoniae 510): > 25.6 µg/mL; MIC (M. tuberculosis H37Rv): 2 µg/mL (≈ 4.74 µM); MIC [4]: 1 µg/mL (≈ 2.37 µM); fold more effective than the reference tuberculostatics (M. tuberculosis Spec 210): 8–32 fold; IC50 (PC3 cells): 51.6 ± 8.1 µM; IC50 at 72 h [5]: > 100 µM; MIC [6, 9]: 0.1 to 0.8 µg/mL (≈ 0.237 to 1.9 µM); fold more effective than CP ([7]; S. aureus 180 and 5595): 2.5 fold; share of the reference (CP) activity ([7]; S. aureus T5595 and T5591): 62.5%; MIC [7]: 0.1 to 0.8 µg/mL (≈ 0.237 to 1.9 µM)
O=C(O)c1cn(C2CC2)c2cc(N3CCN(C(=O)CCCCCl)CC3)c(F)cc2c1=O [Compound 6, 7-[4-(5-Chloropentanoyl)-piperazin-1-yl]-1-cyclopropyl-6-fluoro-4-oxo-1,4-dihydro-quinoline-3-carboxylic Acid] | 0.2 (≈ 0.445 µM) | 0.2 (≈ 0.445 µM) | 0.2 (≈ 0.445 µM) | 0.2 (≈ 0.445 µM) | 0.2 (≈ 0.445 µM) | 0.2 (≈ 0.445 µM) | 1.6 (≈ 3.56 µM) | 0.2 (≈ 0.445 µM) | 0.1 (≈ 0.222 µM) | 0.1 (≈ 0.222 µM) | 0.1 to 0.2 (≈ 0.222 to 0.445 µM) | 0.1 to 0.2 (≈ 0.222 to 0.445 µM) | 6.4 (≈ 14.2 µM) | 12.8 to 25.6 (≈ 28.5 to 56.9 µM) | 0.2 (≈ 0.445 µM) | 0.2 (≈ 0.445 µM) | 6.4 (≈ 14.2 µM) | 12.8 (≈ 28.5 µM) | 12.8 (≈ 28.5 µM) | 0.4 (≈ 0.889 µM) | MIC S. aureus T5595 (S. aureus T5595; 18 h): 0.2 µg/mL (≈ 0.445 µM); MIC S. aureus T5591 (S. aureus T5591; 18 h): 0.2 µg/mL (≈ 0.445 µM); MIC S. epidermidis 5253 (S. epidermidis 5253): 12.8 µg/mL (≈ 28.5 µM); MIC (E. coli 600): 0.4 µg/mL (≈ 0.889 µM); MIC (E. cloacae 8): 0.8 µg/mL (≈ 1.78 µM); MIC (K. pneumoniae 28): > 25.6 µg/mL; MIC (K. pneumoniae 510): > 25.6 µg/mL; MIC (M. tuberculosis H37Rv): 0.5 µg/mL (≈ 1.11 µM); MIC [4]: 0.5 µg/mL (≈ 1.11 µM); IC50 (S. aureus DNA gyrase): 12 µM; IC50 [1, 10]: 17.8 µM; IC50 (PC3 cells): 108 ± 11 µM; IC50 at 72 h [5]: 19.7 ± 2.8 µM; MIC [6]: 0.1 to 0.8 µg/mL (≈ 0.222 to 1.78 µM); MIC [8]: ≤ 1 µg/mL; fold more effective than CP ([7]; S. aureus 180 and 5595): 5 fold; times more powerful than CP ([7]; S. aureus T5595 and T5591): 1.25–2.5 times; MIC [7]: 0.1 to 0.8 µg/mL (≈ 0.222 to 1.78 µM)
C=CC(=O)N1CCN(c2cc3c(cc2F)c(=O)c(C(=O)O)cn3C2CC2)CC1 [Compound 1, 7-(4-Acryloyl-piperazin-1-yl)-1-cyclopropyl-6-fluoro-4-oxo-1,4-dihydro-quinoline-3-carboxylic Acid] | 0.05 (≈ 0.13 µM) | 0.05 (≈ 0.13 µM) | 0.05 (≈ 0.13 µM) | 0.1 (≈ 0.259 µM) | 0.1 (≈ 0.259 µM) | 0.05 (≈ 0.13 µM) | 3.2 (≈ 8.3 µM) | 0.1 (≈ 0.259 µM) | 0.8 (≈ 2.08 µM) | 0.8 (≈ 2.08 µM) | 0.4 (≈ 1.04 µM) | 0.8 (≈ 2.08 µM) | > 25.6 | > 25.6 | 0.4 (≈ 1.04 µM) | 0.4 (≈ 1.04 µM) | > 25.6 | > 25.6 | > 25.6 | 1.6 (≈ 4.15 µM) | MIC (E. coli 600): > 25.6 µg/mL; MIC (E. cloacae 8): 3.2 µg/mL (≈ 8.3 µM); MIC (K. pneumoniae 28): > 25.6 µg/mL; MIC (K. pneumoniae 510): > 25.6 µg/mL; MIC (M. tuberculosis H37Rv): 4 µg/mL (≈ 10.4 µM); MIC [4]: 4 µg/mL (≈ 10.4 µM); fold more effective than the reference tuberculostatics (M. tuberculosis Spec 210): 8–32 fold; IC50 (S. aureus DNA gyrase): 23.9 µM; IC50 [1, 10]: 25.9 µM; IC50 (PC3 cells): 68.7 ± 3.4 µM; IC50 at 72 h [5]: 100 ± 1.2 µM; times higher potency than CP ([6]; S. aureus NCTC 4163 and ATCC 25923): 5–10 times; MIC [6]: 0.05 to 0.4 µg/mL (≈ 0.13 to 1.04 µM); fold more active than CP toward standard Staphylococci [6, 9]: 1.25–10 fold; MIC [8]: ≤ 1 µg/mL; share of CP inhibitory activity ([7]; S. aureus 180 and 5595): 62.5%
